“Also recorded” adds a separate entry of the source.
Experiments:
participants with SSc-RP [1] = assay: SHAQ Visual Analog Scale - Breathing Problems; format: in vivo, human; design: Visual Analog Scale-Breathing Problems, Baseline, Mean / Visual Analog Scale-Breathing Problems, Baseline, Median / Visual Analog Scale-Breathing Problems, In Clinic Visit (Day 12), Mean / Visual Analog Scale-Breathing Problems, In Clinic Visit (Day 12), Median / Visual Analog Scale-Breathing Problems, Change from Baseline, Mean / Visual Analog Scale-Breathing Problems, Change from Baseline, Median: scale not given here; conditions: for % improvement in Breathing (median): mITT
Procedure: Results: Patients in the study were administered the Scleroderma Health Assessment Questionnaire (SHAQ) at the time of study entry and during clinic visits following the treatment period. The study is a two-part, parallel arm design, prospective, double-blind, randomized study conducted in Australia (Flinders Medical Center). 27 patients were randomized into the first phase of the study, following which a DSMB meeting was held, which reviewed data on the primary study endpoint and key Raynaud's secondary endpoints. Data on the SHAQ was not available for the DSMB to review. The mITT population, in which any data was available post treatment was 24 patients was the analysis population for this first part of the study. The second part (i.e., part B) of the study will randomize 36 patients in a double blind, randomized, prospective, placebo controlled, crossover study. In the first part (i.e., Part A) of the study for which data is presented, patients were randomized into 6 groups, cilnidipine at two doses (10 and 20 mg) alone and in combination with tadalafil 5 mg, tadalafil 5 mg alone, and placebo. […] The DSMB recommended that the study proceed into its double blind prospective cross overpowered second phase and compare cilnidipine 20 mg alone to placebo. […] Cilnidipine treatment may reduce patient-reported SSc disease disability compared to placebo • b. Cilnidipine treatment may reduce patient-reported SSc disease alternative disability compared to placebo • c. Cilnidipine treatment may reduce patient-reported SSc disease pain* compared to placebo • d. Cilnidipine treatment may reduce patient-reported SSc disease severity compared to placebo • e. Cilnidipine treatment may reduce patient-reported SSc disease skin ulcer severity rating compared to placebo • f Cilnidipine treatment may reduce patient-reported SSc disease breathing difficulty compared to placebo • g. […] SSc disease pain comprises not only pain from Raynaud's but joint pain, headache, odynophagia, back pain, pain from skin ulceration, and neuropathic pain). Table E includes results of the Scleroderma Health Assessment Questionnaire.

participants with SSc-RP [2] = assay: Adverse events and serious adverse events (safety, tolerability); format: in vivo
Source text: In this study, AEs and SAEs will be reported for all participants from the time of randomization until the completion of the Follow-up/EOS visit. Adverse events that are ongoing at the EOS visit will be marked as Not Recovered/Not resolved on the AE eCRF page.
An AE is any event, side effect, or other untoward medical occurrence that occurs in conjunction with the use of a medicinal product in humans, whether or not considered to have a causal relationship to this treatment. An AE can, therefore, be any unfavorable and unintended sign (that could include a clinically significant abnormal laboratory finding), symptom, or disease temporally associated with the use of a medicinal product, whether or not considered related to the medicinal product.
Severity of AEs will be graded by the Investigator as one of: • Mild (Grade 1): A type of AE that is usually transient and may require only minimal treatment or therapeutic intervention.
An SAE is an AE occurring during any study phase (i.e. baseline, treatment, washout, or follow-up), and at any dose of the study drug (active or placebo), that fulfills one or more of the following: • Results in death • It is immediately life-threatening • It requires in participant hospitalization or prolongation of existing hospitalization • It results in persistent or significant disability or incapacity • Results in a congenital abnormality or birth defect • It is an important medical event that may jeopardize the participant or may require medical intervention to prevent one of the outcomes listed above.
Adverse events will be coded using the most current version of the MedDRA® Version 22.0 or higher. The analysis of AEs will be based on the concept of treatment emergent AEs. Treatment emergent AEs will be tabulated by treatment group and will include the number of participants for whom the event occurred, the severity, and relationship to study drug. Treatment emergent AEs (TEAEs) leading to discontinuation and SAEs with onset after the start of study drug will also be summarized.
Treatment-emergent AEs (TEAEs) are defined as AEs that occur or worsen after the dose of study drug. If the timing of the start of an AE could not be determined unambiguously from the start or end dates provided, it will be assumed to be a TEAE. An AE is considered related if the relationship to either of the study drug has been indicated as possibly or probably or definite related by the investigator. An AE leading to study withdrawal is defined as an AE that cause a subject early terminated from the study. AEs will be identified as emerging in the following parts: • TEAEs for Part A will be those that started during Part A (i.e., from the first dose in Part A to end of follow up of Part A) • TEAEs for Part B will be those that started during Part B (i.e., from the first dose in Part B to end of follow-up of Part B).
• Incidence of treatment emergent adverse events (AEs) and serious adverse events (SAEs), including clinically significant vital signs. For Part A safety will be assessed from the time of randomization until 7 days following the last protocol dose. For Part B, participants will be followed for 28 days from the last study dose. • Serious adverse events will be monitored by a DSMB (Part A) and Drug Safety Officer (Part B) on an ongoing basis throughout the study. • Adverse events will be coded using the MedDRA and summarized by SOC, PT, and treatment group.

[3] = Tadalafil 5 mg, Modified ITT, Part A

CN1CC(=O)N2[C@H](c3ccc4c(c3)OCO4)c3[nH]c4ccccc4c3C[C@@H]2C1=O [Tadalafil]
Visual Analog Scale-Breathing Problems, Baseline, Mean (participants with SSc-RP [1]; [3]): 1.025 | Visual Analog Scale-Breathing Problems, Baseline, Median (participants with SSc-RP [1]; [3]): 0.450 | Visual Analog Scale-Breathing Problems, Change from Baseline, Mean (participants with SSc-RP [1]; [3]): 0.925 | Visual Analog Scale-Breathing Problems, Change from Baseline, Median (participants with SSc-RP [1]; [3]): 0.300 | Visual Analog Scale-Breathing Problems, In Clinic Visit (Day 12), Mean (participants with SSc-RP [1]; [3]): 1.950 | Visual Analog Scale-Breathing Problems, In Clinic Visit (Day 12), Median (participants with SSc-RP [1]; [3]): 0.450 | Visual Analog Scale-Breathing Problems, Percent Change from Baseline, Mean (participants with SSc-RP [1]; [3]): 213.54% | Visual Analog Scale-Breathing Problems, Percent Change from Baseline, Median (participants with SSc-RP [1]; [3]): 115.63% | Adverse Events (AEs): worst AE by group (participants with SSc-RP [2]; tadalafil monotherapy group): Worst AE in tadalafil

COCCOC(=O)C1=C(C)NC(C)=C(C(=O)OC/C=C/c2ccccc2)C1c1cccc([N+](=O)[O-])c1 (stereo not shown) [Cilnidipine, 1,4-dihydro-2,6-dimethyl,4-(3-nitrophenyl)-3,5-pyridinedicarboxylic acid 2-methoxyethyl (2 E)-3-phenyl-2-propenyl ester]
Visual Analog Scale-Breathing Problems, Baseline, Median (participants with SSc-RP [1]; Cilnidipine 10 mg, Modified ITT, Part A): 0.000 | % improvement in Breathing (median) (participants with SSc-RP [1]; Cilnidipine 20 mg (n = 3), SHAQ): 67% (median) | VAS - Breathing problems, Baseline on a 0-10 VAS (participants with SSc-RP [1]; Cilnidipine 20 mg (n = 3), last footnote): **Baseline was 1.13 on a 0-10 VAS | Visual Analog Scale-Breathing Problems, Baseline, Median (participants with SSc-RP [1]; Cilnidipine 20 mg, Modified ITT, Part A): 1.200 | patient-reported SSc disease breathing difficulty compared to placebo (participants with SSc-RP [1]; Example 4, SHAQ, mITT Part A): may reduce | % improvement in Breathing (median) (participants with SSc-RP [1]; Pooled Cilnidipine (n = 7), SHAQ): 41% (median) | Safety: withdrawals (participants with SSc-RP [2]; Cilnidipine 20 mg (n = 8)): 1 withdrawal | Safety: number of AE (participants with SSc-RP [2]; Cilnidipine 20 mg (n = 8), HA-mild): 1AE (HA-mild; | severity grade of adverse events (participants with SSc-RP [2]; Example 4): only Grade 1 Adverse Events (AEs) were reported; also recorded: only mild (Grade 1) adverse events occurred | tolerability (participants with SSc-RP [2]; Example 4, 10 mg and 20 mg, alone or in combination with tadalafil): well tolerated; also recorded: good tolerability | overall adverse event rate / incidence of Adverse Events (participants with SSc-RP [2]; Example 4, all patients who received any dose of cilnidipine (n=17)): 17% | Safety: withdrawals (participants with SSc-RP [2]; Pooled Cilnidipine (n = 9)): T); no withdrawals | Safety: number of AE (participants with SSc-RP [2]; Pooled Cilnidipine (n = 9), AE in combo with T): 1AE (in combo with

From patent US20240398771A1, “TREATMENT OF SCLERODERMA AND RAYNAUD'S SYNDROME” (Aisa Pharma, Inc., priority 2023, published 2024)
